In EP0197829A1, “5H-pyrido[3',4':4,5]pyrrolo[3,2-c]pyridine derivatives, process for their preparation and their antitunour activity” (SANOFI, priority 1985, dated 1986):
Read-outs that look alike come from different tables or passages of the source.

How the values were obtained:
leucémie P 388 = assay type: in vivo, souris hybrides CDF1; conditions: for Survivants: at day J 40
Excerpt: L'activité antitumorale a été testée in vivo sur différentes tumeurs selon le protocole général suivant : Toutes les souris mâles ou femelles sont inoculées par voie intrapéritonéale au jour Jo avec une quantité déterminée de cellules tumorales viables, variable selon la tumeur.
Elles sont ensuite réparties en différents lots. Chaque lot correspondant aux animaux traités par le produit à tester à une dose déterminée est composé de lO souris. Dans ce cas, le produit à tester est dissous dans l'eau distillée et il est administré, pendant n jours (J1-Jn) variables selon le protocole choisi, par voie intrapéritonéale à raison de 0,1 ml par lO g de poids des souris traitées, les doses du produit administré étant précisées dans les tableaux ci-dessous.
Le lot "Contrôle négatif", correspondant aux animaux qui ne sont pas traités par un produit, comprend 2 √N animaux, N étant égal au nombre total de souris traitées par un produit.
Enfin, tous lés essais sont conduits parallèlement à l'étude d'un lot appelé "Contrôle positif" de 10 animaux qui est traité par une molécule active, variable selon le protocole choisi, dans les mêmes conditions que les lots traités par le produit à tester, afin de valider l'essai.
L'activité antitumorale est évaluée en considérant l'augmentation du temps de survie des animaux traités par rapport à celui des animaux du lot "Contrôle négatif" selon la formule : • Jour médian de survie des animaux traités à une T/C = dose donnée de produit x 100 • Jour médian de survie des animaux "Contrôle négatif"
Un composé est considéré comme étant actif lorsque la valeur du rapport T/C est égale ou supérieure à 125 % selon le protocole retenu. Il est toxique lorsque cette valeur est égale ou inférieure à 85 %. Le produit est également considéré comme toxique lorsque la variation pondérale, exprimée en grammes et calculée par la formule : Poids moyen du lot mesuré au jour 5 - poids moyen du même lot au jour 1, est égale ou inférieure à -4g . a) Test de la leucémie P 388 (GERAN et al., Cancer Chemother, 1972, 2, 07-57).
Les essais sont effectués avec des souris hybrides CDF1 inoculées par voie intrapéritonéale avec […] leucémiques de la lignée P 388. Le composé à tester est administré pendant 5 jours (Jl-J5). Le contrôle positif du test est le 5-fluorouracile qui est administré dans les mêmes conditions.
[…] Un composé est considéré comme étant actif lorsque le rapport T/C est supérieur à 127 %.

[1] = tested on: lignée tumorale leucémie L 1210; assay: In vitro cytotoxicity on L 1210 leukemia cell culture; assay type: cell-based; conditions: concentration inhibiting cell proliferation by 50 p. 100, after 48 h contact; read-out: ID 50 (the source's name)
Experimental: 1) In vitro : (PAOLETTI et al., Chem. Biol. Interaction, 1979, 25, 45-58).
L'activité cytotoxique des composés de l'invention a été évaluée par des essais in vitro. Ces essais consistent à ajouter des concentrations croissantes du composé à tester à une culture cellulaire de la lignée tumorale leucémie L 1210 en phase exponentielle de croissance. Les cellules sont incubées à 37°C dans une étuve à C02 et comptées toutes les 24 heures. Le calcul de l'ID 50 (concentration du produit exprimée en micromole 1^-1 qui inhibe la prolifération cellulaire à 50 p. 100) est effectué après 48 heures de contact. Ainsi déterminées, les ID 50 des composés de l'invention sont rassemblées dans le tableau I ci-après : […]

souris BDF1 saines = assay: in vivo; conditions: mouse, ip, 200 mg/kg
Experimental: Ainsi, l'administration à des souris hybrides CDF1 saines, en une injection unique par la voie intrapéritonéale, de doses croissantes des composés à tester (5 mg, 10 mg, 20 mg, 40 mg/kg) a permis de constater que, à ces doses, les produits étaient parfaitement tolérés puisque le taux de survivants était de 100 p. 100.
Dans les mêmes conditions, administrés à des souris BDF1 saines, les taux de survivants étaient de 100 p. 100 jusqu'à 100 mg/kg pour les dérivés 1, 3 et 9 et jusqu'à 200 mg/kg pour les dérivés 2 et 8.

## diméthyl-4,5[(éthylamino-3 propyl-1)amino]-1 5-H pyrido[3',4':4,5]pyrrolo[3,2-c]pyridine [Dérivé N° 8]
leucémie P 388; 5 mg/kg i.p. J1-J5
  Jour médian de survie: 13,4
  T/C %: 116%
  Survivants: 0
leucémie P 388; 10 mg/kg i.p. J1-J5
  Jour médian de survie: 14,62
  T/C %: 127%
  Survivants: 0
leucémie P 388; 20 mg/kg i.p. J1-J5
  Jour médian de survie: 16,75
  T/C %: 145%
  Survivants: 0
leucémie P 388; 40 mg/kg i.p. J1-J5
  Jour médian de survie: 16,0
  T/C %: 138%
  Survivants: 0
leucémie P 388; 80 mg/kg i.p. J1-J5
  Jour médian de survie: 17,25
  T/C %: 149%
  Survivants: 0
[1]
  IC50: 3.8 µM
Souris BDF1 saines
  taux de survivants: 100 p. 100
